# US7723023B2, “Use of intrinsic reporters of cell signaling for high content drug profiling and toxicity screening” (Mount Sinai School of Medicine, priority 2001, dated 2010)
# Where “and” joins values, the source holds several entries; their conditions need not be identical. Equal values may be shown once.
# Test system: GnRHR-expressing LβT2 gonadotrope cell line
# Assay: Focused cDNA microarray analysis (FMA) of genes regulated by GnRH in LβT2 cells
# Assay type: cell-based, mouse
# Procedure: Cell Culture and Sample Preparation: LβT2 cells were obtained and maintained at 37° C. in 5% CO2 in humidified air in DMEM (Mediatech) containing 10% fetal bovine serum (Gemini). For experiments. 40-50×10^6 cells were seeded in 15 cm dishes. The medium was replaced 21 hours later with DMEM containing 25 mM HEPES (Mediatech) and glutamine. […] The incubation was stopped by aspirating the incubation medium and adding 10 ml of lysis buffer (4M guanidinium thiocyanate, 25 mM sodium citrate, pH 7.0, 0.5% N-lauroyl-sarcosine, and 0.1 M 2-mercaptoethanol). Total RNA was isolated according to the method of Chomczynski and Sacchi (1987) supra. Approximately 400 μg total RNA was obtained from each plate.
# Microarray Development: The 956 clones were selected from an NIA 15K library (Tanaka et al. (2000) Proc. Natl. Acad. Sci. USA 97:9127-9132) or purchased from Research Genetics. The gene selection was partially based on literature searches. A large number of genes known to be induced at early time points in other experimental systems were included as well as 67 putative “housekeeping” genes. Plasmids were purified using the Qiaprep 96 Turbo Miniprep kit. Following insert amplification by PCR, products were confirmed by agarose gel electrophoresis and purified with Qiaquick 96 kit (Qiagen). The product was dried, dissolved in 18 μl H2O. 50% DMSO or 3×SSC and spotted (3 hits/feature, 3 features/gene) with a GMS 417 Arrayer (Affymetrix) on CMT-GAPS coated glass slides (Corning). DNA was fixed either by incubating the slide 3.5 hours at 40° C. followed by 10 min at 100° C. or for 2 hours at 85° C. or by UV crosslinking with 90 mJ (Stratalinker, Stratagene). Arrays were stored light-protected at room temperature until use. A Cy5-labeled oligomer complementary to one of the amplification primers was designed to test printing and attachment efficiency (5′-CGTTTTACAACGTCGTGACTGGG-3′) (SEQ ID NO:1). 12% of the cDNAs on the array were confirmed by sequencing, including randomly selected clones on each 96-well plate and all genes that were identified as regulated.
# RNA Labeling and Hybridization. 20 μg of total RNA from each sample was labeled with either Cy3 or Cy5 using the Atlas indirect labeling kit (Clontech) as indicated by the manufacturer. Following array prehybridization in 6×SSC, 0.5% SDS, 1% BSA at 42° C. for 45 min, the probe was denatured and hybridized in 24 μl 50% formamid, 6×SSC, 0.5% SDS. 5×Denhardt's with 2.4 μg salmon sperm DNA, 10 μg poly dA at 42° C. (room temperature for test oligomer hybridization) for 16 hours. Following 10 min washes in 0.1×SSC, 0.1% SDS, and twice in 0.1×SSC the slide was scanned using the GMS 418 Scanner (Affymetrix).
# Data Analysis. […] The median background-subtracted feature intensity was utilized for further analysis. Overall differences in the signal intensity of the two wavelengths measured on each slide (λ=532 nm and λ=635 nm) were corrected using the locally linear robust scatterplot smoother implemented in the loess function in S Plus Professional (Insightful Corporation). Predictors were generated using a symmetric distribution, span=0.75 (Venables and Ripley (1999) Modern Applied Statistics with S-Plus. Spring, N.Y. Measurement precision was estimated by determining the median coefficient of variation within slides for each gene:
# [formula] Genes were selected according to the following algorithm (i) ±fold-change of >1.3; (ii) |t|>3; (iii) signal intensity in at least one channel >1% of the median signal intensity value; (iv) criteria i-iii observed in at least 2 of 3 experiments.
# Microarray Identification of Genes Activated by GnRH is LβT2 Cells. The response to GnRH was studied in the GnRHR-expressing LβT2 gonadotrope cell line (Turgeon et al. (1996) Mol Endocrinol. 10:439-450). Three separate experiments comparing the effects of 1 hour exposure to GnRH or vehicle were performed. […]
# [1] = 100 nM GnRH vs vehicle, 1 hour, LβT2 cells
# [2] = two clones spotted in different locations on the arrays, 100 nM GnRH, 1 hour
substance,measurement,setting,value
gonadotropin releasing hormone [GnRH],"1κB fold-change, Microarray (n = 3)",[1],1.7 ± 0.2 fold
same,"Egr1 fold-change, Microarray (n = 3)",[1],12.9 ± 3.8 fold
same,"Egr2 fold-change, Microarray (n = 3)",[1],1.5 ± 0.2 fold
same,"Gem fold-change, Microarray (n = 3)",[1],1.7 ± 0.2 fold
same,"HSP30 fold-change, Microarray (n = 3)",[1],1.3 ± 0.2 fold
same,"Klf4 fold-change, Microarray (n = 3)",[1],1.7 ± 0.3 fold
same,"Klf-like EST fold-change, Microarray (n = 3)",[1],2.3 ± 0.3 fold
same,"LRG21 fold-change, Microarray (n = 3)",[1],31.2 ± 16.6 fold
same,"MKP1/3CH134 fold-change, Microarray (n = 3)",[1],1.4 ± 0.1 fold
same,"NMDMC fold-change, Microarray (n = 3)",[1],1.4 ± 0.3 fold
same,"Nr4a1/nur77 fold-change, Microarray (n = 3)",[1],5.9 ± 1.5 fold
same,"Nrf2 fold-change, Microarray (n = 3)",[1],1.3 ± 0.2 fold
same,"PRL1 fold-change, Microarray (n = 3)",[1],2.0 ± 0.4 fold
same,"Period1 fold-change, Microarray (n = 3)",[1],2.1 ± 0.1 fold
same,"Rgs2 fold-change, Microarray (n = 3)",[1],4.0 ± 1.3 fold
same,"TSC22 fold-change, Microarray (n = 3)",[1],3.4 ± 0.4 fold
same,"c-fos fold-change, Microarray (n = 3)",[1],12.5 ± 4.0 fold
same,"c-jun fold-change, Microarray (n = 3)",[1],3.8 ± 0.6 fold
same,"gly96 fold-change, Microarray (n = 3)",[1],1.7 ± 0.6 fold
same,"ler2/Pip92 fold-change, Microarray (n = 3)",[1],5.2 ± 1.2 fold
same,"transgelin fold-change, Microarray (n = 3)",[1],1.4 ± 0.1 fold
same,"β-actin fold-change, Microarray (n = 3)",[1],2.0 ± 0.5 fold
same,"γ-actin fold-change, Microarray (n = 3)",[1],2.7 ± 0.3 fold
same,"Time course of induced genes, FMA",cells exposed to GnRH for 3 hours and 6 hours,nearly all of the induced genes return to baseline levels of expression by 3 hours
same,"Nrf2 degree of change on microarray, two different clones",[2],1.3±0.2 and 1.3±0.1
same,"PRL1 degree of change on microarray, two different clones",[2],2.0±0.4 and 1.5±0.4
same,"Rgs2 degree of change on microarray, two different clones",[2],4.0±1.3 and 2.9±1.2
same,"TSC22 degree of change on microarray, two different clones",[2],3.4±0.4 and 3.3±0.6
